Experimental data from patent US10479786B2, “Protein kinase inhibitors” (Princeton Drug Discovery Inc, priority 2016, dated 2019).

Experiments:
PDGFRα = biological target: T1, PDGFRα (Homo sapiens, UniProt P16234); assay: Off-chip Mobility Shift Assay, kinase inhibition; format: biochemical; conditions: recombinant PDGFRα; for inhibition at 0.001 µM: at 1 nM; for inhibition at 0.01 µM: at 10 nM, read-out: inhibition
T1 construct: purchased Carna Biosciences, Inc

BTK = biological target: T2, BTK (Homo sapiens, UniProt Q06187); assay: Off-chip Mobility Shift Assay, kinase inhibition; format: biochemical; conditions: recombinant BTK; for inhibition at 0.001 µM: at 1 nM; for inhibition at 0.01 µM: at 10 nM
T2 construct: purchased Carna Biosciences, Inc

BMX = biological target: T3, BMX (Homo sapiens, UniProt P51813); assay: Off-chip Mobility Shift Assay, kinase inhibition; format: biochemical; conditions: recombinant BMX; for inhibition at 0.001 µM: at 1 nM; for inhibition at 0.01 µM: at 10 nM
T3 construct: purchased Carna Biosciences, Inc
T3 sequence (P51813 1-675): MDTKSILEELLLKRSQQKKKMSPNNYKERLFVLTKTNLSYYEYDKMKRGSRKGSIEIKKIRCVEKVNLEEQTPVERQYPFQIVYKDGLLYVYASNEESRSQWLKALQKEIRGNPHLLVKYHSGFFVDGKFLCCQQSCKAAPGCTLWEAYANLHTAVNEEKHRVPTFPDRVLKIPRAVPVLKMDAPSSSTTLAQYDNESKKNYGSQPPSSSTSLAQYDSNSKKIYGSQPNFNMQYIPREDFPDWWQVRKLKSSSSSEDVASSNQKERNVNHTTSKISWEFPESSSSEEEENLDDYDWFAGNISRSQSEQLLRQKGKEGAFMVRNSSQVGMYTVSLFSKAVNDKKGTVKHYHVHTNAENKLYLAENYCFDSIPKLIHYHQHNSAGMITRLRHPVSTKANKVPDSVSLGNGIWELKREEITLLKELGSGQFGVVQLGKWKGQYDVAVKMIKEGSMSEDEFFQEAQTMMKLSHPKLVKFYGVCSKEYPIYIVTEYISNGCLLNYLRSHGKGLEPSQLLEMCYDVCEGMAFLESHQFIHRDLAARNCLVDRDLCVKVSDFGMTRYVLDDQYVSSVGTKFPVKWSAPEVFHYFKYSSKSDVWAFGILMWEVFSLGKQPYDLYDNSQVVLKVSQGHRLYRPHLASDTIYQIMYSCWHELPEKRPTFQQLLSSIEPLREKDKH

SU-DHL-4 = assay: Cell inhibition assay (PrestoBlue, 48 h); format: cell-based; conditions: Homo sapiens, SU-DHL-4, 48 h, SU-DHL-4 diffuse large B-cell lymphoma cells, read-out: IC50, inhibition of growth
[1] = Metabolic stability in human liver microsomes; format: in vitro ADME; conditions: human liver microsomes
Protocol: FIG. 1. Metabolic stability of compounds in human liver microsomal incubations. […] Concentrations at specified times were determined by LC-MS/MS.
The incubation reactions at various time points were quenched by adding 2× volumes of acetonitrile containing 100 nM reserpine. The quenched incubation samples were centrifuged at 4000 RPM for 10 min, and the supernatants injected for LC/MS/MS analysis. LC/MS/MS analysis was carried out on a AB Sciex 4000 Q Trap LC/MS/MS system coupled with Shimadzu Prominence UFLCXR 20 series (including a CBM-20A controller, two LC-20ADXR solvent delivery units, SIL-20AC HT autosampler, CTO-20A column oven, and a SPD-20A UV detector).

BLK = biological target: T4, BLK (Homo sapiens, UniProt P51451); assay: Off-chip Mobility Shift Assay, kinase inhibition; format: biochemical; conditions: recombinant BLK; for inhibition at 0.001 µM: at 1 nM; for inhibition at 0.01 µM: at 10 nM
T4 construct: purchased Carna Biosciences, Inc

PIK3CA/PIK3R1 = biological target: T5, PIK3CA/PIK3R1 (Homo sapiens, UniProt P42336); assay: Off-chip Mobility Shift Assay, kinase inhibition; format: biochemical; conditions: recombinant PIK3CA/PIK3R1; for inhibition at 0.01 µM: at 10 nM
T5 construct: purchased Carna Biosciences, Inc

FYN(isoform a) = biological target: T6, FYN(isoform a) (Homo sapiens, UniProt P06241); assay: Off-chip Mobility Shift Assay, kinase inhibition; format: biochemical; conditions: recombinant FYN(isoform a); for inhibition at 0.001 µM: at 1 nM; for inhibition at 0.01 µM: at 10 nM
T6 construct: purchased Carna Biosciences, Inc

YES = biological target: T7, YES (Homo sapiens, UniProt P07947); assay: Off-chip Mobility Shift Assay, kinase inhibition; format: biochemical; conditions: recombinant YES; for inhibition at 0.001 µM: at 1 nM; for inhibition at 0.01 µM: at 10 nM
T7 construct: purchased Carna Biosciences, Inc

PDGFRβ = biological target: T8, PDGFRβ (Homo sapiens, UniProt P09619); assay: Off-chip Mobility Shift Assay, kinase inhibition; format: biochemical; conditions: recombinant PDGFRβ; for inhibition at 0.001 µM: at 1 nM; for inhibition at 0.01 µM: at 10 nM, read-out: inhibition
T8 construct: purchased Carna Biosciences, Inc

TEC = biological target: T9, TEC (Homo sapiens, UniProt P42680); assay: Off-chip Mobility Shift Assay, kinase inhibition; format: biochemical; conditions: at 1 nM; recombinant TEC
T9 construct: purchased Carna Biosciences, Inc
T9 sequence (P42680 1-631): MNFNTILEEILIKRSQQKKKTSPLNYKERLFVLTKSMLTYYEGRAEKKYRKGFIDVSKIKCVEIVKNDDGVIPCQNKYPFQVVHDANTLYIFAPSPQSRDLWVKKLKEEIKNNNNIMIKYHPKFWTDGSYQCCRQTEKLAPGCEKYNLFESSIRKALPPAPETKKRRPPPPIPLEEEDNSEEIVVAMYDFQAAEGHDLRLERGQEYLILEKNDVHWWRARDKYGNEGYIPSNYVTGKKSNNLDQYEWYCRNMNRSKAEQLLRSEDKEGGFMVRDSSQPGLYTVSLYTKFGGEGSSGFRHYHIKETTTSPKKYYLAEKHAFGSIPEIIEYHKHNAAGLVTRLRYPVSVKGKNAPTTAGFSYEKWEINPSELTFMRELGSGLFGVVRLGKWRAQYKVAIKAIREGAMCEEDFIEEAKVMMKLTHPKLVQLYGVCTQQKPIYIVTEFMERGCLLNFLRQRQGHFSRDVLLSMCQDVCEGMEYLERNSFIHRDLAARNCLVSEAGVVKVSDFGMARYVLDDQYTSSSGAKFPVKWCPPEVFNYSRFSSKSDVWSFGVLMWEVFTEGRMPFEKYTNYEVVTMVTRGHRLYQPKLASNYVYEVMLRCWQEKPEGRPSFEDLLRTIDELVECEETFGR

T1 sequence (P16234 24-1089): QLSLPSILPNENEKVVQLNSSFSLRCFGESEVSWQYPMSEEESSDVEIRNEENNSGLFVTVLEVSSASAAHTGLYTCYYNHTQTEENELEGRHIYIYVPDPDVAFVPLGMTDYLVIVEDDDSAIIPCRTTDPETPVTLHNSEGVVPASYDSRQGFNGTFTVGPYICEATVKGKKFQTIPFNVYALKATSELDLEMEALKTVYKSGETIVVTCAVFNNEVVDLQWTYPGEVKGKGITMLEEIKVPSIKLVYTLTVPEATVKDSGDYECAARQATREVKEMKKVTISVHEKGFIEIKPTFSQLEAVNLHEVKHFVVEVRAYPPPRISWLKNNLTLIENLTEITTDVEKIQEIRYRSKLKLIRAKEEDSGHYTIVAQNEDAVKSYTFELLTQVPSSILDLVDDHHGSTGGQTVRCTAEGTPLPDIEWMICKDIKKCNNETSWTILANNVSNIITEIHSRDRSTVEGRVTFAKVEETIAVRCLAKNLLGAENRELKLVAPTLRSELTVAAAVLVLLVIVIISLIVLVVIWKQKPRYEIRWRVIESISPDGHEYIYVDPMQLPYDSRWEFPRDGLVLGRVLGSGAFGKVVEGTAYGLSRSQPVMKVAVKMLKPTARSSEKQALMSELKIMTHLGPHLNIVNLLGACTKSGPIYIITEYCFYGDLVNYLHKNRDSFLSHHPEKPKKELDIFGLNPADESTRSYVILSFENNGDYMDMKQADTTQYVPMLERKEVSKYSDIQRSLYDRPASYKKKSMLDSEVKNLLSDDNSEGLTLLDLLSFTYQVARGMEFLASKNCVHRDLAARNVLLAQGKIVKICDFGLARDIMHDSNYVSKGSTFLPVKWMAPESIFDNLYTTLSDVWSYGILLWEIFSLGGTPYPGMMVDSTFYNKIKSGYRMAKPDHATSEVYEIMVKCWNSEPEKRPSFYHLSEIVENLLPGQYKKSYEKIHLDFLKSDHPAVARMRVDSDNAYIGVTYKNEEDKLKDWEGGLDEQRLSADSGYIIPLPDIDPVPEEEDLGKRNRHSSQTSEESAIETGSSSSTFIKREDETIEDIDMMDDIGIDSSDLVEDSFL
T2 sequence (Q06187 whole entry): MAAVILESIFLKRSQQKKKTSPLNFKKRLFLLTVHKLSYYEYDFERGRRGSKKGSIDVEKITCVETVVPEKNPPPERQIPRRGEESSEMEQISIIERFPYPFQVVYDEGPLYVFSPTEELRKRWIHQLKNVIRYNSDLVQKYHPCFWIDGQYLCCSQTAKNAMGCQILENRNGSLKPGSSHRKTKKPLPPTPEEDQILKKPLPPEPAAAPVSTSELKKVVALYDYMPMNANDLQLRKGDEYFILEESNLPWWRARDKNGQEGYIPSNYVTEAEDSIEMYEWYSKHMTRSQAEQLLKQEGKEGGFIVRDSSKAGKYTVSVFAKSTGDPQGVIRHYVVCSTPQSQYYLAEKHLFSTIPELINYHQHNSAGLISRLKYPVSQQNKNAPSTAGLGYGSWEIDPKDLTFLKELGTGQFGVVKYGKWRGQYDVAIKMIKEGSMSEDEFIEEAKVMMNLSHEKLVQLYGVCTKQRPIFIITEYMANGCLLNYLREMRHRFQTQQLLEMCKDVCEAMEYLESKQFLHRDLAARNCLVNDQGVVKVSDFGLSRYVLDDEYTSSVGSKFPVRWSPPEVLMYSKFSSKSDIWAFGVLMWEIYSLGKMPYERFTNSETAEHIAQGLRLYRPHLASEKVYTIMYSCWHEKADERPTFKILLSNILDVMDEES
T7 sequence (P07947 whole entry): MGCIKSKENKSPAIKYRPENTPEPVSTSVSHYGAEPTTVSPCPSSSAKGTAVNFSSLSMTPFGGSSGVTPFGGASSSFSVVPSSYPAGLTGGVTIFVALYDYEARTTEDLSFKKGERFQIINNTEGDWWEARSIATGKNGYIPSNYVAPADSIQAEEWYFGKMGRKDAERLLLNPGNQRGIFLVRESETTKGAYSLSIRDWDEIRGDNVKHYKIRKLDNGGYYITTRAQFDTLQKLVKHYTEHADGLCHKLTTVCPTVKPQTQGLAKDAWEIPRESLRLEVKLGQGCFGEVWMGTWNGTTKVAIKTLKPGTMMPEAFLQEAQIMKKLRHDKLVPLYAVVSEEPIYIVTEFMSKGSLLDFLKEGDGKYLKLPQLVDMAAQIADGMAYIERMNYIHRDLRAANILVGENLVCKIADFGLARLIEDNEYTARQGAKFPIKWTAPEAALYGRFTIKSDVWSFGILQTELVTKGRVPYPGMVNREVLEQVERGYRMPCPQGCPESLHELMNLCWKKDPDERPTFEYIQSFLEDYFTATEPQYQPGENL
T4 sequence (P51451 whole entry): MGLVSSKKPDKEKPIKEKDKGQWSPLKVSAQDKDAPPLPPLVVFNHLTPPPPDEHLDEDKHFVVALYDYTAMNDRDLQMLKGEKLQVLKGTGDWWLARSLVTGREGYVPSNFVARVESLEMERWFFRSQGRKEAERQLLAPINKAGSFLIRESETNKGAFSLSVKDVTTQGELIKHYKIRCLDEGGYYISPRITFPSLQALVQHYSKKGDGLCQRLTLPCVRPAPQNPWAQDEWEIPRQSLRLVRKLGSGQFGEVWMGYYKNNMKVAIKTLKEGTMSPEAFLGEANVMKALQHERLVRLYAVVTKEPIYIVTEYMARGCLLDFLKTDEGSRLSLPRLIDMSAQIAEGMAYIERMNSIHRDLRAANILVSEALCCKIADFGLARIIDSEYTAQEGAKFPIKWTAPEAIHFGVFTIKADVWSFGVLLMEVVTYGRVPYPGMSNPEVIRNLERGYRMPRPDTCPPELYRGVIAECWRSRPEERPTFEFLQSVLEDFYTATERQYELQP
T8 sequence (P09619 33-1106): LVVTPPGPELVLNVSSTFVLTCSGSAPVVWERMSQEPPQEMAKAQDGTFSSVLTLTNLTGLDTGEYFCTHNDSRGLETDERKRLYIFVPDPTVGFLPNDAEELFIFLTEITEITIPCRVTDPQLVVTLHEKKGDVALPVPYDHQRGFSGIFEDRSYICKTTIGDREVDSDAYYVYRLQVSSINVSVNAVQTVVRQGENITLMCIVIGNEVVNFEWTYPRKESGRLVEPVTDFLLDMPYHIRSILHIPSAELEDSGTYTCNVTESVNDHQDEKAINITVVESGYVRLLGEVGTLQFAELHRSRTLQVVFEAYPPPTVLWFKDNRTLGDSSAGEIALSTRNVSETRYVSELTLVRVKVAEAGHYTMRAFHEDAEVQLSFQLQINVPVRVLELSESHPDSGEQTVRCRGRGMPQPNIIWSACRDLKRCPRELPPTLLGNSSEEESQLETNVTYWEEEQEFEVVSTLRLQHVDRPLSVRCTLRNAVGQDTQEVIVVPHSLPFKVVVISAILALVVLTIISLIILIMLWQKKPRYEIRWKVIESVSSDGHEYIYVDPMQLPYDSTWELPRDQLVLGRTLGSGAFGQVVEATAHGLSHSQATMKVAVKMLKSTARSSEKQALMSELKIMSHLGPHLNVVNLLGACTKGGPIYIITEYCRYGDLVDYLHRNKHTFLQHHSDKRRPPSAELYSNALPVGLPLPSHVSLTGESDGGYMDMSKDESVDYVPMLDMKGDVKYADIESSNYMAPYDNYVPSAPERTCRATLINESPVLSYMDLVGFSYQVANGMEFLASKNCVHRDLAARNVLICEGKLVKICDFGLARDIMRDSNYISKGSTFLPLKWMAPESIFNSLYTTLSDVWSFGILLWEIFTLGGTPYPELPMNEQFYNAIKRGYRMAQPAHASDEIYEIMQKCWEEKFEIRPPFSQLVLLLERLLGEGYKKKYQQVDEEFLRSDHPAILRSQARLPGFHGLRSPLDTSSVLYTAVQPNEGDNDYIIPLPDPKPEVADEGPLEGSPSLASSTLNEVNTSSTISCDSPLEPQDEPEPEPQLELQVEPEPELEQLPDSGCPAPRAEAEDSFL
T6 sequence (P06241 whole entry, canonical isoform): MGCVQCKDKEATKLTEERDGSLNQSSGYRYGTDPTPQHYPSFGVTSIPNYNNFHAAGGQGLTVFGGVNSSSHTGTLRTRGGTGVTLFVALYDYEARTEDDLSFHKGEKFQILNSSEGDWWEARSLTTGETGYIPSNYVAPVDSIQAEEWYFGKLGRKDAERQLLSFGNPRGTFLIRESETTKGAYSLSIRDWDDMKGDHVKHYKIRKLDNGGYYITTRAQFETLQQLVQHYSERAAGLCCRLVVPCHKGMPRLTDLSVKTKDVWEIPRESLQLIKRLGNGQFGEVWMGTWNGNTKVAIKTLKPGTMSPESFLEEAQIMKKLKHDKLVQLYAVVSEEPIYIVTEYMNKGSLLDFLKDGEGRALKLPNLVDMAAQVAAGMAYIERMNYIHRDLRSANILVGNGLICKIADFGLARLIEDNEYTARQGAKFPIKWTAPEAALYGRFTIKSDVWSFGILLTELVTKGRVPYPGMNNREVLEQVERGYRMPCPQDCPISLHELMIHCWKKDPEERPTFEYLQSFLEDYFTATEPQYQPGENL

| inhibition at 0.01 µM (PDGFRα) | inhibition at 0.001 µM (BTK) | inhibition at 0.01 µM (BTK) | inhibition at 0.001 µM (BMX) | inhibition at 0.01 µM (BMX) | IC50 (SU-DHL-4) | metabolic stability compared to dasatinib [1] | inhibition at 0.01 µM (BLK) | inhibition at 0.01 µM (PIK3CA/PIK3R1) | inhibition at 0.01 µM (FYN(isoform a)) | inhibition at 0.001 µM (YES) | inhibition at 0.01 µM (YES) | inhibition at 0.01 µM (PDGFRβ) | inhibition at 0.001 µM (TEC) | SMILES | further results |
| --- | --- | --- | --- | --- | --- | --- | --- | --- | --- | --- | --- | --- | --- | --- | --- |
| > 50% | > 50% | > 50% | > 50% | > 50% | < 20 nM | significantly greater stability | > 50% | > 50% | > 50% | > 50% | > 50% | > 50% |  | [2H]c1cc(C)c(NC(=O)c2cnc(Nc3cc(N4CCCCC4)nc(C)n3)s2)c(Cl)c1 [Compound I, N-(2-chloro-4-deuterio-6-methyl-phenyl)-2-[[2-methyl-6-(1-piperidyl)pyrimidin-4-yl]amino]thiazole-5-carboxamide] | inhibition at 0.001 µM (PDGFRα): > 50%; inhibition at 0.001 µM (BLK): > 50%; inhibition at 0.001 µM (FYN(isoform a)): > 50%; inhibition at 0.001 µM (PDGFRβ): > 50% |
| > 50% | > 50% | > 50% | > 50% | > 50% | < 20 nM |  | > 50% | > 50% | > 50% | > 50% | > 50% | > 50% | > 50% | [2H]c1cc(C)c(NC(=O)c2cnc(Nc3cc(N4CCC(O)CC4)nc(C)n3)s2)c(Cl)c1 [Compound II, N-(2-chloro-4-deuterio-6-methyl-phenyl)-2-[[6-(4-hydroxy-1-piperidyl)-2-methyl-pyrimidin-4-yl]amino]thiazole-5-carboxamide] | inhibition at 0.001 µM (PDGFRα): < 50%; inhibition at 0.1 µM (PDGFRα; at 100 nM): > 50%; inhibition at 0.001 µM (BLK): > 50%; inhibition at 0.001 µM (PIK3CA/PIK3R1; at 1 nM): < 50%; inhibition at 0.1 µM (PIK3CA/PIK3R1; at 100 nM): < 50%; inhibition at 0.001 µM (FYN(isoform a)): > 50%; inhibition at 0.001 µM (PDGFRβ): < 50%; inhibition at 0.1 µM (PDGFRβ; at 100 nM): > 50% |
| > 50% | > 50% | > 50% | > 50% | > 50% | < 20 nM |  | > 50% | > 50% | > 50% | > 50% | > 50% | > 50% | > 50% | Cc1nc(Nc2ncc(C(=O)Nc3c(C)cccc3Cl)s2)cc(N2CCC(O)CC2)n1 [Compound IX, N-(2-chloro-6-methylphenyl)-2-[[2-methyl-6-(4-hydroxypiperidin-1-yl)pyrimidin-4-yl]amino]thiazole-5-carboxamide] |  |
| > 50% | > 50% | > 50% | > 50% | > 50% | < 20 nM | significantly greater stability | > 50% | > 50% | > 50% | > 50% | > 50% | > 50% | > 50% | [2H]c1cc(C)c(NC(=O)c2cnc(Nc3cc(N4CC[C@H](N)C4)nc(C)n3)s2)c(Cl)c1 [Compound VI, N-(2-chloro-4-dutero-6-methylphenyl)-2-[[2-methyl-6-((S)-3-aminopyrrolidin-1-yl)pyrimidin-4-yl]amino]thiazole-5-carboxamide] |  |
| > 50% | > 50% | > 50% | > 50% | > 50% | < 20 nM | significantly greater stability | > 50% | > 50% | > 50% | > 50% | > 50% | > 50% | > 50% | [2H]c1cc(C)c(NC(=O)c2cnc(Nc3cc(N4CC[C@@H](N)C4)nc(C)n3)s2)c(Cl)c1 [Compound VII, N-(2-chloro-4-deutero-6-methylphenyl)-2-[[2-methyl-6-((R)-3-aminopyrrolidin-1-yl)pyrimidin-4-yl]amino]thiazole-5-carboxamide] |  |
| > 50% | > 50% | > 50% | > 50% | > 50% | < 20 nM | significantly greater stability | > 50% | > 50% | > 50% | > 50% | > 50% | > 50% | > 50% | Cc1nc(Nc2ncc(C(=O)Nc3c(C)cccc3Cl)s2)cc(N2CCCCC2)n1 [Compound VIII, N-(2-chloro-6-methylphenyl)-2-[[2-methyl-6-(piperidin-1-yl)pyrimidin-4-yl]amino]thiazole-5-carboxamide] |  |
| > 50% | > 50% | > 50% | > 50% | > 50% | < 20 nM | significantly greater stability | > 50% | > 50% | > 50% | > 50% | > 50% | > 50% | > 50% | Cc1nc(Nc2ncc(C(=O)Nc3c(C)cccc3Cl)s2)cc(N2CC[C@H](N)C2)n1 [Compound XII, N-(2-chloro-6-methylphenyl)-2-[[2-methyl-6-((S)-3-aminopyrrolidin-1-yl)pyrimidin-4-yl]amino]thiazole-5-carboxamide] |  |
| > 50% | > 50% | > 50% | > 50% | > 50% | < 20 nM | significantly greater stability | > 50% | > 50% | > 50% | > 50% | > 50% | > 50% | > 50% | Cc1nc(Nc2ncc(C(=O)Nc3c(C)cccc3Cl)s2)cc(N2CC[C@@H](N)C2)n1 [Compound XIII, N-(2-chloro-6-methylphenyl)-2-[[2-methyl-6-((R)-3-aminopyrrolidin-1-yl)pyrimidin-4-yl]amino]thiazole-5-carboxamide] |  |
